Measurements: US20130203718A1 (priority 2010, published 2013)

Target: T1, hAR (Homo sapiens, UniProt P10275)
T1 construct: expressed in transfected cells; host or cells: HEK 293T
T1 sequence (P10275 1-920): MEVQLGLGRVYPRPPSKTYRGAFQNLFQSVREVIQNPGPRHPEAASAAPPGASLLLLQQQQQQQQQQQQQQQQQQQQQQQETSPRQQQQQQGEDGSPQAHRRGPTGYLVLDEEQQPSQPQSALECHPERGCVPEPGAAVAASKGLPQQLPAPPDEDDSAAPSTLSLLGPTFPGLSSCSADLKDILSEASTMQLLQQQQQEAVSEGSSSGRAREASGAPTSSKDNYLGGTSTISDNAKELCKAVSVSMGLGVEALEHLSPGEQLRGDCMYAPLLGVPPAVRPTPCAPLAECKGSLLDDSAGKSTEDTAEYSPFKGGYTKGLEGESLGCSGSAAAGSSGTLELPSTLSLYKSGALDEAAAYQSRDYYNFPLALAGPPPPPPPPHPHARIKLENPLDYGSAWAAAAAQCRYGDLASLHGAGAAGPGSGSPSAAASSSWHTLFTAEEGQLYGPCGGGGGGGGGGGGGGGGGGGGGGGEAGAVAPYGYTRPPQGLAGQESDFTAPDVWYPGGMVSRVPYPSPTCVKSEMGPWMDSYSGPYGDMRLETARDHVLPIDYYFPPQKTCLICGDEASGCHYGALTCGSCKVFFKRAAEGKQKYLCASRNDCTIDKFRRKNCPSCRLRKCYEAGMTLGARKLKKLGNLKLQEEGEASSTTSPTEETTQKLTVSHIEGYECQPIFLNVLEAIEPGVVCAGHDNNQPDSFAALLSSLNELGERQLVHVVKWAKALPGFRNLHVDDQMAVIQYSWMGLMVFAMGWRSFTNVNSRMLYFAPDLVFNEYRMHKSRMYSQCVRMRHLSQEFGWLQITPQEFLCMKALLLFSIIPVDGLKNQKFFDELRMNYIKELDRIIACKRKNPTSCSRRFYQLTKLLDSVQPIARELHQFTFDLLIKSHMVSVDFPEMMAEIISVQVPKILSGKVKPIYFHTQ
Experiment: APRn selectivity: transactivation in HEK293T cells transiently expressing hAR
Assay type: cell-based
Details: for agonist efficacy towards hAR (in words): HEK293T, FIG. 11; for selectivity for hPR vs hAR, hGR and hMR (in words): conclusion from hAR, hGR and hMR transactivation assays
Method: Measurement of the APRn Selectivity in HEK 293T.
The HEK-293T cells were cultured and transfected according to the method described above for the PR transactivation assays. The expression vectors pcDNA-hAR, kindly provided by G. A. Coetzee, pchGR (Hellal-Levy, C et al. FEBS Lett 1999, 464, 9), and pchMR (Fagart, J. et al. EMBO J. 1998, 17, 3317) were used for studying the ability of APRn to activate or inactivate the AR, GR and MR, respectively. For each transfection assays, 2 μg of the expression vector was used together with 7 μg of the GRE2-Luc reporter vector. Dihydrotestosterone (DHT), dexamethasone (Dex) and Aldosterone (Aldo) were selected as AR, GR and MR ligands, respectively. They were used at the concentration of 10^−9 M. The APRn agonist and antagonist efficacy for AR, GR and MR were measured as described above for PR. The results are the mean±SEM of three independent experiments.
Transfection assays were performed in HEK 293T cells by using expression vectors for the hAR, hGR and hMR and the GRE2-Luc reporter used for the PR transactivation assays.

SMILES | agonist efficacy towards hAR (in words) | selectivity for hPR vs hAR, hGR and hMR (in words)
CC(=O)[C@H]1CC[C@H]2[C@@H]3CC=C4C[C@@H](F)CC[C@]4(C)[C@H]3CC[C@]12C [APR-16, 3β-Fluoropregn-5-en-20-one] | low agonist efficacy | selective hPR antagonists
CC#C[C@]1(O)CCC2C3CC[C@H]4CCCC[C@]4(C)C3CC[C@@]21C (stereo partly drawn) [APR-42, 17α-(1-Propynyl)-5α-androstan-17β-ol] | low agonist efficacy | selective hPR antagonists
C[C@]12CCC3C(CC=C4C[C@@H](F)CC[C@@H]43)C1CCC2=O (stereo partly drawn) [APR-47, 3β-Fluoro-19-nor-androst-5-en-17-one] | low agonist efficacy | selective hPR antagonists
